In general, pIC50 refers to the negative decadic logarithm of the IC50, by convention in mol/L.

We go through 57 compounds from patent US20230130766A1 (SALK INSTITUTE FOR BIOLOGICAL STUDIES, priority 2020, published 2023).

Structures are written as SMILES. pIC50: −log10 of the molar value.

The test has as its target T1, ULK1 (Homo sapiens, UniProt O75385).
T1 sequence (O75385 1-1050): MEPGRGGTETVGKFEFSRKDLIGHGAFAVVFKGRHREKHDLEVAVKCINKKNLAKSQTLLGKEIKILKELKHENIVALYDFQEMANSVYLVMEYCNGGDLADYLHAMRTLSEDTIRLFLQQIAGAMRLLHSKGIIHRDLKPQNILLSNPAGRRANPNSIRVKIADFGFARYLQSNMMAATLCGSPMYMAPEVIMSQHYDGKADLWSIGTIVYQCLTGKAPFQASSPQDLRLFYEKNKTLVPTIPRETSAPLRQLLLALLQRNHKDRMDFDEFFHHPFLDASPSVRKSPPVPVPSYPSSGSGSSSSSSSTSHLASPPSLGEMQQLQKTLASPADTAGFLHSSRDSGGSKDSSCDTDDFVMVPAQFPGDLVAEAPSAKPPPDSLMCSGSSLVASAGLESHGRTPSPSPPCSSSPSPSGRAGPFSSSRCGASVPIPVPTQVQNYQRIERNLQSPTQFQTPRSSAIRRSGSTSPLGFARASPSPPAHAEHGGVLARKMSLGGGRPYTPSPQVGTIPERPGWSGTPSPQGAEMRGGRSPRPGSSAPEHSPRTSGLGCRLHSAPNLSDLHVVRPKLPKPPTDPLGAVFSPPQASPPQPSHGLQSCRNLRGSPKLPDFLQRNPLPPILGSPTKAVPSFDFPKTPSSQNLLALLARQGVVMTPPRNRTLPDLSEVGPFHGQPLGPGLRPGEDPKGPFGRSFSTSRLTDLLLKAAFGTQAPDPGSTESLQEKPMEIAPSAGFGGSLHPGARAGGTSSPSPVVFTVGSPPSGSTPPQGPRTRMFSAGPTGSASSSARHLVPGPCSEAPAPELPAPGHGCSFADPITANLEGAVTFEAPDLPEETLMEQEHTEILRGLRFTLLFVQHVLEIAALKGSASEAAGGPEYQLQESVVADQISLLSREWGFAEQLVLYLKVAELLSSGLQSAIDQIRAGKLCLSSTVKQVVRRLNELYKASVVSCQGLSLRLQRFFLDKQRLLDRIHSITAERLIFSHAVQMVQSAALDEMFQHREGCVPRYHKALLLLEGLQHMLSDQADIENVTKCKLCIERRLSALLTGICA
The experiment in a line: ULK1 inhibition assay. In kind it is biochemical. As to conditions: * = tested as a mixture of regioisomers.
As for `O=C1CCc2cc(Nc3ncc(Br)c(Nc4ccccn4)n3)ccc2N1` [Compound 155], the pIC50 was over 6.70. Then `O=c1[nH]c2ccc(Nc3ncc(Br)c(Nc4ccc5[nH]c(=O)[nH]c5c4)n3)cc2[nH]1` [Compound 233], with over 6.70; and `COc1cc(Nc2ncc(Br)c(N(C)C(=O)c3ccccc3O)n2)cc(OC)c1OC` [Compound 171b], with over 6.70; and `COC(=O)CNc1nc(Nc2ccc3c(c2)CCC(=O)N3)ncc1C(F)(F)F` [Compound 218], with under 5.70. For the compound `COc1cc(Nc2ncc(Br)c(Oc3ccccc3C(F)(F)F)n2)cc(OC)c1OC` [Compound 299], the pIC50 is over 6.70. Take `O=C1CCc2cc(Nc3ncc(Cl)c(Nc4ccc5c(c4)CCC(=O)N5)n3)ccc2N1` [Compound 134]: the pIC50 was over 6.70. `COc1cc(Nc2ncc(Br)c(Oc3ccccc3C(=O)N3CCCC3)n2)cc(OC)c1OC` [Compound 277]: the pIC50 is over 6.70.

As for `FC(F)(F)c1cnc(N2CCCC2c2cccnc2)nc1NC1CC1` (stereo not drawn) [Compound 228], the pIC50 was under 5.70. For `FC(F)(F)c1cnc(NC2Cc3ccccc3C2)nc1Nc1ccc2c(c1)OCO2` [Compound 163a], the pIC50 is under 5.70. Consider `Oc1nc(Nc2ccc(Cl)c(Cl)c2)ncc1C(F)(F)F` [Compound 108b], for which the pIC50 was under 5.70.

As for `CNC(=O)c1ccccc1Nc1nc(Nc2cc(OC)c(OC)c(OC)c2)ncc1-c1ccccc1` [Compound 73], the pIC50 was over 6.70. Take `O=[N+]([O-])c1cnc(NC2CC2)nc1NC1CC1` [Compound 291b]: the pIC50 was under 5.70. Take `Cc1cccc(Oc2nc(Nc3ccc4c(c3)CCC(=O)N4)ncc2C(F)(F)F)c1C` [Compound 83]: the pIC50 is over 6.70. Take `FC(F)(F)c1cnc(Nc2cccc(Cl)c2Cl)nc1Nc1ccc2c(c1)OCO2` [147*]: the pIC50 is under 5.70. To `CNC(=O)CCOc1nc(Nc2cc(OC)c(OC)c(OC)c2)ncc1Br` [Compound 316] belongs over 6.70; to `FC(F)(F)c1cnc(Nc2cnc3ccccc3c2)nc1NC1CC1` [Compound 275], over 6.70; to `c1cc(NC2CC2)nc(Nc2cnc3[nH]ccc3c2)n1` [Compound 204], under 5.70. To `CC(=O)Nc1ccc(Nc2nc(Nc3ccc4c(c3)CCC(=O)N4)ncc2C(F)(F)F)cc1` [Compound 132] belongs over 6.70; to `c1cc(NC2CC2)nc(Nc2ccc3c(c2)OCCO3)n1` [Compound 224], under 5.70; to `COc1cc(Nc2ncc(Br)c(Nc3ccccc3O)n2)cc(OC)c1OC` [Compound 317], over 6.70. Then `COc1cc(Nc2ncc(Br)c(Oc3ccccc3[S+](C)[O-])n2)cc(OC)c1OC` (stereo not drawn) [Compound 356], with under 5.70. As for `COCCNc1ncc(C(F)(F)F)c(Nc2ccc3c(c2)CCC(=O)N3)n1` [Compound 151b], the pIC50 is over 6.70. To `O=C1CCc2cc(Nc3ncc(C(=O)O)c(NC4CC4)n3)ccc2N1` [Compound 286] belongs under 5.70.

For the compound `O=c1[nH][nH]c(=O)c2cc(Nc3ncc(C(F)(F)F)c(NC4CC4)n3)ccc12` [Compound 334], the pIC50 was over 6.70. As for `CCCCOc1nc(Nc2cc(OC)c(OC)c(OC)c2)ncc1Br` [Compound 173], the pIC50 was over 6.70.

As for `COc1cc(Nc2ncc(C(F)(F)F)c(NC3CC3)n2)cc(OC)c1OC` [Compound 187], the pIC50 is over 6.70. `COc1cc(Nc2ncc(Br)c(Oc3cccc4[nH]nnc34)n2)cc(OC)c1OC` [Compound 352]: the pIC50 was under 5.70.

For `CNC(=O)c1ccccc1COc1nc(Nc2cc(OC)c(OC)c(OC)c2)ncc1Br` [Compound 338], the pIC50 is under 5.70.

In the case of `O=C1CCc2cc(Nc3nc(NC4Cc5ccccc5C4)ncc3C(F)(F)F)ccc2N1` [Compound 130b], the pIC50 is under 5.70.

With `FC(F)(F)c1cnc(Nc2ccc3nn[nH]c3c2)nc1NC1CC1` [Compound 188], the pIC50 was over 6.70.

Regarding `OCc1ccccc1Nc1nc(Nc2cc(F)c(F)c(F)c2)ncc1Br` [Compound 353], the pIC50 is under 5.70. As to `CNC(=O)c1ccccc1Sc1nc(Nc2cc(OC)ccc2C)ncc1C(F)(F)F` [Compound 117], the pIC50 was under 5.70. To `CNC(=O)c1ccccc1Oc1nc(Nc2ccccc2SC)ncc1C(F)(F)F` [Compound 116a] belongs under 5.70; to `COc1ccc(Nc2ncc(C(F)(F)F)c(Nc3ccc4c(c3)OCO4)n2)cc1` [144*], over 6.70; to `CC1CN1c1nc(Nc2ccc3c(c2)CCC(=O)N3)ncc1C(F)(F)F` (stereo not drawn) [Compound 183a], under 5.70.

In the case of `COc1cc(N2CCOCC2)ccc1Nc1ncc(Br)c(Nc2ccccc2S(=O)(=O)N(C)C)n1` [Compound 80], the pIC50 is over 6.70. Turning to `O=C1CCc2cc(Nc3ncc(C(F)(F)F)c(-c4ccccc4)n3)ccc2N1` [Compound 72], the pIC50 was under 5.70.

Turning to `CNC(=O)c1ccccc1Oc1nc(Nc2cc(Br)ccc2C)ncc1C(F)(F)F` [Compound 100], the negative logarithm of the IC50 (pIC50) was under 5.70.

Turning to `O=C1CCc2cc(Nc3nc(Nc4ccc5c(c4)OC(F)(F)O5)ncc3C(F)(F)F)ccc2N1` [Compound 178b], the pIC50 was over 6.70.

As to `CN(c1ccccc1)c1nc(Nc2ccc3c(c2)CCC(=O)N3)ncc1C(F)(F)F` [Compound 184a], the pIC50 is 5.70 to 6.70.

As for `O=C1CCc2cc(Nc3ncc(C(F)(F)F)c(OCCNC(=O)OCc4ccccc4)n3)ccc2N1` [Compound 261], the pIC50 was under 5.70. To `CNC(=O)c1ccccc1Oc1nc(Nc2ccccc2OC)ncc1C(F)(F)F` [Compound 103] belongs under 5.70; to `O=C1CCc2cc(Nc3ncc(C(F)(F)F)c(OCCNCCO)n3)ccc2N1` [Compound 212b], 5.70 to 6.70. In the case of `COc1ccc(C)c(Nc2ncc(Cl)c(NCc3cccc(S(C)(=O)=O)c3)n2)c1` [Compound 41], the pIC50 is under 5.70. In the case of `FC(F)(F)c1cnc(Nc2ccnnc2)nc1NC1CC1` [Compound 221a], the pIC50 is over 6.70.

With `CNC(=O)c1ccccc1Nc1nc(Nc2cc(OC)c(OC)c(OC)c2)ncc1C(F)(F)F` [Compound 36], the pIC50 was under 5.70. With `FC(F)(F)c1cnc(Nc2cncnc2)nc1NC1CC1` [Compound 203], the pIC50 was over 6.70. In the case of `O=C1CCc2cc(Nc3ncc(C(F)(F)F)c(NC4CC4)n3)ccc2N1` [Compound 131a], the pIC50 was over 6.70.

On to `CNC(=O)c1ccccc1Nc1nc(Nc2cnc3[nH]ccc3c2)ncc1C(F)(F)F` [Compound 201], for which the pIC50 was over 6.70. Regarding `CNC(=O)c1ccccc1Nc1nc(Nc2ccc3c(c2)CCC(=O)N3)ncc1-c1ccccc1` [Compound 89], the pIC50 was over 6.70.

As to `COc1cc(Nc2ncc(Br)c(Nc3ccccn3)n2)cc(OC)c1OC` [Compound 22], the pIC50 is over 6.70. Consider `CS(=O)(=O)c1cccc(CNc2nc(Nc3ccc4[nH]ccc4c3)ncc2Br)c1` [Compound 153], for which the pIC50 is under 5.70. As for `COc1cc(Nc2ncc(Br)c(Oc3ccccc3CNC(C)=O)n2)cc(OC)c1OC` [Compound 328], the pIC50 was under 5.70. In the case of `COc1ccc(C)c(Nc2ncc(Br)c(Nc3ccc(OC)nc3)n2)c1` [Compound 35], the negative-log IC50 (pIC50) is under 5.70.

For the compound `CNC(=O)c1cccc(Oc2nc(Nc3ccc4c(c3)CCC(=O)N4)ncc2Br)c1` [Compound 268], the negative-log IC50 (pIC50) was 5.70 to 6.70. Then `N#CCc1cccc(Nc2nc(Nc3ccc4c(c3)CCC(=O)N4)ncc2C(F)(F)F)c1` [Compound 61], with over 6.70; and `COc1cccc(Nc2nc(Nc3ccc(OC(F)(F)F)c(Cl)c3)ncc2C(F)(F)F)c1` [136*], with under 5.70.
